Reference: patent EP2088143A1, “Novel inhibitors of mycobacterium tuberculosis complex cytochrome P450 CYP121” (priority 2008, dated 2009)

Columns and labels:
CYP121 [1] = target: T1, CYP121 (Mycobacterium tuberculosis, UniProt P9WPP7); experiment: Co-crystallisation with CYP121 and X-ray structure of the complex; format: binding; details: co-crystals; 0.2 mM cyclo(L-Tyr-L-Phe), 0.8 mM cyclo(L-Tyr-L-Ala)
Target sequence in this assay (P9WPP7 2-396 limits assumed): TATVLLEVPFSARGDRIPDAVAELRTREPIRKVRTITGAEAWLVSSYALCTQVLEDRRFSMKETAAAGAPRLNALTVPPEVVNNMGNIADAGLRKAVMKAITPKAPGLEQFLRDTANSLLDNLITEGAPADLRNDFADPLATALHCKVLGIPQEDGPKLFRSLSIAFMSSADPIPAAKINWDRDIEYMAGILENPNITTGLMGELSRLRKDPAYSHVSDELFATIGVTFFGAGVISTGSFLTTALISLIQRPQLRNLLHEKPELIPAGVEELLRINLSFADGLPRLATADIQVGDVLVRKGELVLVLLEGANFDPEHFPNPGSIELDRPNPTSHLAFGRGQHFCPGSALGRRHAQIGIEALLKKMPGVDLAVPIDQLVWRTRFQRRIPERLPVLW

[2] = target: Mycobacterium tuberculosis cytochrome P450 CYP121 (Mycobacterium bovis BCG Pasteur (100% identical to Mycobacterium tuberculosis H37Rv)) (UniProt P9WPP7); experiment: cell-based or functional assay
Mycobacterium tuberculosis cytochrome P450 CYP121 (Mycobacterium bovis BCG Pasteur (100% identical to Mycobacterium tuberculosis H37Rv)), sequence (P9WPP7 whole entry): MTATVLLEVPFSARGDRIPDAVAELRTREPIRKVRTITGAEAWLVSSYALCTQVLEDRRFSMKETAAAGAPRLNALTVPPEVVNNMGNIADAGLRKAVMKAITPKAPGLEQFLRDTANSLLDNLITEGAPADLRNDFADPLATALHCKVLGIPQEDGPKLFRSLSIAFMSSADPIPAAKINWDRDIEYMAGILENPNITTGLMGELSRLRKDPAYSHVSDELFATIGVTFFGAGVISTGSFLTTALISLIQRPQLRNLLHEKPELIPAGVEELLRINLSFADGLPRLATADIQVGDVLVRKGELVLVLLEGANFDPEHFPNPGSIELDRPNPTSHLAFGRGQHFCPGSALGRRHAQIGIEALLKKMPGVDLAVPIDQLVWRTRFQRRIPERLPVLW

[3] = target: Mycobacterium tuberculosis cytochrome P450 CYP121 (Mycobacterium bovis BCG Pasteur (100% identical to Mycobacterium tuberculosis H37Rv)) (UniProt P9WPP7); experiment: spectrally estimated dissociation constant (Ks); UV/Vis titration of 2 µM CYP121, ΔA388-ΔA416 fitted to a hyperbola
CYP121 [4] = target: T1, CYP121; experiment: CYP121 enzyme assay: transformation of cyclodipeptide with electron transport chain and NADPH, RP-HPLC analysis; format: biochemical; details: 30°C; for transformation of cyclodipeptide by CYP121: ~0.1 mM cyclodipeptide, 5 µM CYP121, electron transport chain, 0-60 min
Target sequence in this assay (P9WPP7 2-396 limits assumed): as the sequence (P9WPP7 2-396 limits assumed) above

CYP121 [5] = target: T1, CYP121; experiment: Spectral binding titration of CYP121 by cyclodipeptide (UV/Vis absorbance spectroscopy, type I binding); details: 2 µM CYP121, Tris-HCl 50 mM pH 7.6 10% glycerol; ΔA388-ΔA416 versus cyclodipeptide concentration; mean of four experiments; read-out: binding constant (Ks)
CYP121 [6] = target: T1, CYP121; experiment: Inhibition of CYP121 activity: cyclo(L-Tyr-L-Tyr) transformation in the presence of added compound, RP-HPLC analysis; format: biochemical
Target sequence in this assay (P9WPP7 2-396 limits assumed): as above

## O=C1N[C@@H](Cc2ccc(O)cc2)C(=O)N[C@H]1Cc1ccccc1 [cyclo(L-Tyr-L-Phe)]
CYP121 [1]
  binding to CYP121 (crystal structure of the complex): bind to CYP121

## cyclo(L-Tyr-L-Tyr) (peptide)
[2]
  rate of cyclo(L-Tyr-L-Tyr) transformation (nmoles/min/nmole of CYP121): 3.8
[3]
  Kd: 27.6 µM

## O=C1N[C@@H](Cc2ccc(O)cc2)C(=O)N[C@H]1Cc1ccc(O)cc1 [cyclo(L-Tyr-L-Tyr)]
CYP121 [4]; no inhibitor added
  time to complete conversion of cyclo(L-Tyr-L-Tyr) by CYP121: less than 30 min
CYP121 [4]; in vitro conditions, exogenous electron transport chain, NADPH
  rate of cyclo(L-Tyr-L-Tyr) transformation: 3.8 nmoles/min/nmole of CYP121
CYP121 [4]; NADPH
  transformation of cyclodipeptide by CYP121: complete consumption

## C[C@@H]1NC(=O)[C@H](Cc2ccc(O)cc2)NC1=O [cyclo(L-Tyr-L-Ala)]
CYP121 [1]
  binding to CYP121 (crystal structure of the complex): bind to CYP121

## O=C1N[C@@H](Cc2c[nH]c3ccccc23)C(=O)N[C@H]1Cc1ccc(O)cc1 [cyclo(L-Tyr-L-Trp)]
CYP121 [5]
  Kd: 63.4 ± 8.8 µM
CYP121 [6]; 0.11 mM cyclo(L-Tyr-L-Tyr), 1.2 mM cyclo(L-Tyr-L-Trp), 60 min, 30°C, completely absent after 30 min without inhibitor
  initial cyclo(L-Tyr-L-Tyr) detected after 60 min incubation: ~30%
CYP121 [4]; NADPH
  transformation of cyclodipeptide by CYP121: can be transformed by CYP121, albeit less efficiently than cyclo(L-Tyr-L-Tyr)

## cyclo(L-Tyr-L-Trp) (peptide)
[2]
  inhibition of cyclo(L-Tyr-L-Tyr) transformation by CYP121 with 1.2 mM cyclo(L-Tyr-L-Trp) (RP-HPLC): 30

## O=C1N[C@@H](Cc2ccc(O)c(O)c2)C(=O)N[C@H]1Cc1ccc(O)cc1 [cyclo(L-DOPA-L-Tyr), cyclo(L-3 or 5,4-dihydroxyphenylalanine-L-Tyr)]
CYP121 [5]
  Kd: 14.7 ± 1.5 µM
CYP121 [6]; 1.2 mM added cyclodipeptide, 60 min incubation at 30°C
  inhibition of cyclo(L-Tyr-L-Tyr) transformation: completely inhibits
CYP121 [4]; NADPH
  transformation of cyclodipeptide by CYP121: no transformation was detected
